Reference: the supplement of paper PMC10627819

Assays:
S. aureus DSM 20231 [1] = experiment: fitness (endpoint OD595 vs no drug) (fraction); higher = more growth
Summary of the method: (§1)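 Fitness compares growth at the stationary-phase transition with the robust mean of no-drug control wells, as a ratio of optical densities. The ratio is capped at 1. Wells of 384-well plates held 30 µl, or 55 µl for S. pneumoniae, inoculated at OD595 0.01. Readings at OD595 every 30 min for 14 h at 37 °C were corrected against the first reading.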

B. subtilis 168 [2] = experiment: as above
Summary of the method: as §1

S. pneumoniae D39V = experiment: Bliss interaction score (quartile over a dose matrix) (fitness difference); higher = more antagonism (negative = synergy)
Summary of the method: (§2)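 Fitness was OD595 at entry into stationary phase divided by the plate's robust no-drug mean and capped at 1; single-drug fitness was inferred from combination data. The Bliss score is observed minus expected (product) fitness, summarised by quartiles over technical, biological and donor/recipient replicates.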

S. aureus DSM 20231 [3] = experiment: as above
Summary of the method: as §2

B. subtilis 168 [4] = experiment: as above
Summary of the method: as §2

S. aureus Newman = experiment: as above
Summary of the method: as §2

[5] = first compound 0.625 µg/mL, partner 0.25 µg/mL
[6] = first compound 1.25 µg/mL, partner 0.25 µg/mL
[7] = first compound 2.5 µg/mL, partner 0.25 µg/mL
[8] = first compound 0.39 µg/mL, partner 0.125 µg/mL, one replicate
[9] = first compound 0.39 µg/mL, partner 0.25 µg/mL
[10] = first compound 0.39 µg/mL, partner 0.5 µg/mL
[11] = first compound 0.78 µg/mL, partner 0.125 µg/mL, one replicate
[12] = first compound 0.78 µg/mL, partner 0.25 µg/mL
[13] = first compound 1.56 µg/mL, partner 0.25 µg/mL
[14] = first compound 1.56 µg/mL, partner 0.5 µg/mL
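Throughout, for Bliss interaction score (quartile over a dose matrix): first quartile when negative (synergy) and third quartile when positive (antagonism).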

`Cc1ncc([N+](=O)[O-])n1CCO` [Metronidazole] + COc1cc(Cc2cnc(N)nc2N)cc(OC)c1OC [Trimethoprim] was tested, and the fitness (S. aureus DSM 20231 [1]; first compound 0.625 µg/mL, partner 0.125 µg/mL) was 0.704, the fitness (S. aureus DSM 20231 [1]; [5]) was 0.607 and the fitness (S. aureus DSM 20231 [1]; first compound 0.625 µg/mL, partner 1 µg/mL) was 0.0438. The fitness (S. aureus DSM 20231 [1]; first compound 1.25 µg/mL, partner 0.125 µg/mL) was 0.744, the fitness (S. aureus DSM 20231 [1]; [6]) was 0.619 and the fitness (S. aureus DSM 20231 [1]; first compound 1.25 µg/mL, partner 1 µg/mL) was 0.0565. For the same molecule, the fitness (S. aureus DSM 20231 [1]; first compound 2.5 µg/mL, partner 0.125 µg/mL) was 0.749, the fitness (S. aureus DSM 20231 [1]; [7]) was 0.652 and the fitness (S. aureus DSM 20231 [1]; first compound 2.5 µg/mL, partner 1 µg/mL) was 0.0572. For the same molecule, the fitness (B. subtilis 168 [2]; first compound 0.625 µg/mL, partner 0.1 µg/mL, one replicate) was 0.832, the fitness (B. subtilis 168 [2]; first compound 0.625 µg/mL, partner 0.125 µg/mL, one replicate) was 0.747 and the fitness (B. subtilis 168 [2]; first compound 0.625 µg/mL, partner 0.2 µg/mL, one replicate) was 0.759. For the same molecule, the fitness (B. subtilis 168 [2]; [5]) was 0.743, the fitness (B. subtilis 168 [2]; first compound 0.625 µg/mL, partner 0.4 µg/mL, one replicate) was 0.572 and the fitness (B. subtilis 168 [2]; first compound 0.625 µg/mL, partner 0.5 µg/mL) was 0.568. It also gave a fitness (B. subtilis 168 [2]; first compound 0.625 µg/mL, partner 1 µg/mL, one replicate) of 0.419, a fitness (B. subtilis 168 [2]; first compound 0.625 µg/mL, partner 2 µg/mL, one replicate) of 0.373 and a fitness (B. subtilis 168 [2]; first compound 1.25 µg/mL, partner 0.1 µg/mL, one replicate) of 0.866. It also gave a fitness (B. subtilis 168 [2]; first compound 1.25 µg/mL, partner 0.125 µg/mL, one replicate) of 0.772, a fitness (B. subtilis 168 [2]; first compound 1.25 µg/mL, partner 0.2 µg/mL, one replicate) of 0.83 and a fitness (B. subtilis 168 [2]; [6]) of 0.724. It also gave a fitness (B. subtilis 168 [2]; first compound 1.25 µg/mL, partner 0.4 µg/mL, one replicate) of 0.555, a fitness (B. subtilis 168 [2]; first compound 1.25 µg/mL, partner 0.5 µg/mL) of 0.531 and a fitness (B. subtilis 168 [2]; first compound 1.25 µg/mL, partner 1 µg/mL, one replicate) of 0.341. It also gave a fitness (B. subtilis 168 [2]; first compound 1.25 µg/mL, partner 2 µg/mL, one replicate) of 0.361, a fitness (B. subtilis 168 [2]; first compound 2.5 µg/mL, partner 0.1 µg/mL, one replicate) of 0.956 and a fitness (B. subtilis 168 [2]; first compound 2.5 µg/mL, partner 0.125 µg/mL, one replicate) of 0.785. It also gave a fitness (B. subtilis 168 [2]; first compound 2.5 µg/mL, partner 0.2 µg/mL, one replicate) of 0.828, a fitness (B. subtilis 168 [2]; [7]) of 0.72 and a fitness (B. subtilis 168 [2]; first compound 2.5 µg/mL, partner 0.4 µg/mL, one replicate) of 0.578. For the same molecule, the fitness (B. subtilis 168 [2]; first compound 2.5 µg/mL, partner 0.5 µg/mL) was 0.471, the fitness (B. subtilis 168 [2]; first compound 2.5 µg/mL, partner 1 µg/mL, one replicate) was 0.396 and the fitness (B. subtilis 168 [2]; first compound 2.5 µg/mL, partner 2 µg/mL, one replicate) was 0.44. For the same molecule, the Bliss interaction score (S. pneumoniae D39V) was 0.232, the Bliss interaction score (S. aureus DSM 20231 [3]) was -0.0577 and the Bliss interaction score (B. subtilis 168 [4]) was 0.11. For the same molecule, the Bliss interaction score (S. aureus Newman) was 0.0902.

`COc1ccc(C[C@H](N)C(=O)N[C@H]2[C@@H](O)[C@H](n3cnc4c(N(C)C)ncnc43)O[C@@H]2CO)cc1` [Puromycin] + COc1cc(Cc2cnc(N)nc2N)cc(OC)c1OC [Trimethoprim] gave a fitness (S. aureus DSM 20231 [1]; [8]) of 0.804, a fitness (S. aureus DSM 20231 [1]; [9]) of 0.605 and a fitness (S. aureus DSM 20231 [1]; [10]) of 0.164. The fitness (S. aureus DSM 20231 [1]; first compound 0.39 µg/mL, partner 1 µg/mL) was 0.0431, the fitness (S. aureus DSM 20231 [1]; [11]) was 0.921 and the fitness (S. aureus DSM 20231 [1]; [12]) was 0.639. The fitness (S. aureus DSM 20231 [1]; first compound 0.78 µg/mL, partner 1 µg/mL) was 0.0497, the fitness (S. aureus DSM 20231 [1]; first compound 1.56 µg/mL, partner 0.125 µg/mL) was 0.876 and the fitness (S. aureus DSM 20231 [1]; [13]) was 0.682. For the same molecule, the fitness (S. aureus DSM 20231 [1]; [14]) was 0.222, the fitness (S. aureus DSM 20231 [1]; first compound 1.56 µg/mL, partner 1 µg/mL) was 0.0562 and the fitness (S. aureus DSM 20231 [1]; first compound 3.12 µg/mL, partner 0.125 µg/mL, one replicate) was 0.908. For the same molecule, the fitness (S. aureus DSM 20231 [1]; first compound 3.12 µg/mL, partner 0.25 µg/mL, one replicate) was 0.812, the fitness (S. aureus DSM 20231 [1]; first compound 3.12 µg/mL, partner 0.5 µg/mL, one replicate) was 0.48 and the fitness (S. aureus DSM 20231 [1]; first compound 6.24 µg/mL, partner 0.125 µg/mL, one replicate) was 0.596. The fitness (S. aureus DSM 20231 [1]; first compound 6.24 µg/mL, partner 0.25 µg/mL, one replicate) was 0.631, the fitness (S. aureus DSM 20231 [1]; first compound 6.24 µg/mL, partner 0.5 µg/mL, one replicate) was 0.613 and the fitness (B. subtilis 168 [2]; first compound 0.39 µg/mL, partner 0.1 µg/mL, one replicate) was 0.818. The fitness (B. subtilis 168 [2]; [8]) was 0.756, the fitness (B. subtilis 168 [2]; first compound 0.39 µg/mL, partner 0.2 µg/mL, one replicate) was 0.814 and the fitness (B. subtilis 168 [2]; [9]) was 0.695. It also gave a fitness (B. subtilis 168 [2]; first compound 0.39 µg/mL, partner 0.4 µg/mL, one replicate) of 0.562, a fitness (B. subtilis 168 [2]; [10]) of 0.492 and a fitness (B. subtilis 168 [2]; first compound 0.39 µg/mL, partner 1 µg/mL, one replicate) of 0.332. For the same molecule, the fitness (B. subtilis 168 [2]; first compound 0.39 µg/mL, partner 2 µg/mL, one replicate) was 0.326, the fitness (B. subtilis 168 [2]; first compound 0.78 µg/mL, partner 0.1 µg/mL, one replicate) was 0.875 and the fitness (B. subtilis 168 [2]; [11]) was 0.748. It also gave a fitness (B. subtilis 168 [2]; first compound 0.78 µg/mL, partner 0.2 µg/mL, one replicate) of 0.85, a fitness (B. subtilis 168 [2]; [12]) of 0.738 and a fitness (B. subtilis 168 [2]; first compound 0.78 µg/mL, partner 0.4 µg/mL, one replicate) of 0.581. It also gave a fitness (B. subtilis 168 [2]; first compound 0.78 µg/mL, partner 0.5 µg/mL) of 0.481, a fitness (B. subtilis 168 [2]; first compound 0.78 µg/mL, partner 1 µg/mL, one replicate) of 0.342 and a fitness (B. subtilis 168 [2]; first compound 0.78 µg/mL, partner 2 µg/mL, one replicate) of 0.29. It also gave a fitness (B. subtilis 168 [2]; first compound 1.56 µg/mL, partner 0.1 µg/mL, one replicate) of 0.962, a fitness (B. subtilis 168 [2]; first compound 1.56 µg/mL, partner 0.125 µg/mL, one replicate) of 0.77 and a fitness (B. subtilis 168 [2]; first compound 1.56 µg/mL, partner 0.2 µg/mL, one replicate) of 0.831. For the same molecule, the fitness (B. subtilis 168 [2]; [13]) was 0.71, the fitness (B. subtilis 168 [2]; first compound 1.56 µg/mL, partner 0.4 µg/mL, one replicate) was 0.575 and the fitness (B. subtilis 168 [2]; [14]) was 0.514. It also gave a fitness (B. subtilis 168 [2]; first compound 1.56 µg/mL, partner 1 µg/mL, one replicate) of 0.365, a fitness (B. subtilis 168 [2]; first compound 1.56 µg/mL, partner 2 µg/mL, one replicate) of 0.235 and a Bliss interaction score (S. pneumoniae D39V) of -0.203. For the same molecule, the Bliss interaction score (S. aureus DSM 20231 [3]) was 0.113, the Bliss interaction score (B. subtilis 168 [4]) was 0.0908 and the Bliss interaction score (S. aureus Newman) was 0.0927.
